Read-outs that look alike come from different tables or passages of the source.
Tested on: SARS-CoV-2
Assay: Plaque assay, anti-SARS-CoV-2 activity in Vero E6 cells
Assay type: cell-based, SARS-CoV-2 (hCoV-19/Taiwan/NTU13/2020)
Conditions: for average percentage of suppression of SARS-CoV-2 replication / plaque reduction compared to the negative control groups (FIG. 13): Vero E6 cells; for average percentage of suppression of SARS-CoV-2 replication: 5 days of incubation; for EC50: Severe acute respiratory syndrome coronavirus 2, Vero C1008, read-out: EC50 (minimal concentration required to reduce 50% of plaque count); for plaque reduction compared to the negative control groups (FIG. 13): at least 10 μM

SMILES | average percentage of suppression of SARS-CoV-2 replication (10 μM) | EC50 (SARS-CoV-2 infected Vero E6 cells, regression analysis of dose-response curves) | plaque reduction compared to the negative control groups (FIG. 13) | average percentage of suppression of SARS-CoV-2 replication (40 μM) | EC50
CCCCCN=C(N)N/N=C/c1c[nH]c2ccc(OC)cc12 [Tegaserod, 1-[(E)-(5-methoxy-1H-indol-3-yl)methylideneamino]-2-pentylguanidine] | 54.3% | < 10 µM | effective in suppression SARS-CoV-2 replication |  | 
CC(Cc1ccc(O)cc1)NCC(O)c1cc(O)cc(O)c1 (stereo not shown) [Fenoterol, 5-[1-hydroxy-2-[1-(4-hydroxyphenyl)propan-2-ylamino]ethyl]benzene-1,3-diol] | 17.0% |  | effective in suppressing SARS-CoV-2 replication | 68.9% | 30 µM

Reference: US20230184749A1, “DRUG RANKING METHOD AND SYSTEM, COMPARISON METHOD FOR DRUG RANKING METHOD AND NEW USE OF DRUG SELECTED USING THE SAME” (National Tsing Hua University, priority 2021, published 2023)
